Values belong to the compound of their own block, whether it stands above or below them.
Legend:
[1] = test system: de novo lipogenesis (DNL); test: Decrease of de novo lipogenesis in rats (literature); type: in vivo; details: extrapolated from rats
Description: Dosages of various HCA compositions found to be effective are quite large, indeed beyond the normal range for pharmaceutical products, with efficacy that is highly variable. […] A later study found a significant, yet limited effect after 7 days of a diet designed specifically to induce de novo lipogenesis in humans. (Physiol Behay. 2006 Jul. 30; 88(4-5):371-81). See also, Nutr Metab (Lond). 2005 Sep. 13; 2:23.

[2] = test system: de novo lipogenesis (DNL); details: obese subjects, 6 g HCA/day for 5 days; cited from earlier work
[3] = Conductivity of solutions (electrical conductivity, HACH Conductivity/TDS meter); type: physicochemical
Description: The structure of the subject compounds (e.g., as described herein) can be deduced using a conductance meter to observe the extent of dissociate of the first and/or second metals from the compounds. In an experiment described below equimolar samples and comparative electrolyte conductance to K-acetate solution as a standard, data may be obtained which is characteristic of electrolyte binary conductants. […] The KMgHCA solution in water may have a pH 8-10 depending on the concentration. Under this condition, the heterocyclic anion formed will tend toward a stable form rather than an ionizable one.
Several experiments investigating the electrical conductivities of solutions of KMgHCA, KZnHCA and KMnHCA were performed. The equipment used was HACH Conductivity/TDS meter, P/N=4460-00.
Materials: KMgHCA.4H2O, KZnHCA.2H2O, KMnHCA.2H2O were prepared using methods described herein. KC2H3O2 and […] was obtained from Merck. H2O used was demineralized water.
General procedure: All the HCA compounds and Acetate were weighed and placed in a volumetric flask and dissolved with demineralized water to one liter solution and then they were tested the conductivity (EC).

Osteoporosis = test: Example 14: comparison of KCaHCA and/or KMgHCA compositions, single subject; type: in vivo, human; details: for symptoms of osteoporosis: 200 mg 3 times a day after meals; for subject's condition during the regimen: 200 mg doses 3 times a day, sequential regimens in the same subject after 3 months of the blend
Procedure: • Subject: (cited as Example 12, above) • • Problem: Osteoporosis Treatment: Materials were consumed 3 times a day after meals. • Experiment 1. Blending 150 mg KMgHCA.8H2O+50 mg KCaHCA.3H2O • A 200 mg mixture of KCaHCA (25%) and KMgHCA (75%) prepared according to the subject methods was used. The actual percentage of calcium was (40/338)×25%=2.96%. Since KCaHCA.3H2O was used the percentage of magnesium in the composition was (24/412)×75%=4.37%. Since KMgHCA.8H2O was used, the ratio Ca:Mg=0.15:0.36 in mmol. • Experiment 2. 200 mg KMgHCA.8H2O • Experiment 3.

[4] = test system: osteoporosis and calcification on hand and leg; test: Example 13: comparison of different bimetal regimes (KMg vs. KCa vs. combination), two subjects; type: in vivo, human; parameters: key to Treatment performance: + +: very good performance; + −: good but slight complaint
Procedure: Subject I: a person, 40 kg (cited in Example 11, above)
Subject II: a person; 72 kg
• Treatment: A. Mixture 25% KCa HCA+75% KMg HCA bimetals (100-200 mg) • B. Only KMg HCA bimetal Results: […]

[5] = cited from earlier work
[6] = 0.3 mmol/l in demineralized water, no additive

SMILES: O=C(O)CC(O)(C(=O)O)C(O)C(=O)O (stereo not drawn) [HCA, Hydroxycitric acid]
- effective dose extrapolated to a 70 kg human being [1]: approximately 4.5 g/day
- inhibition of DNL / promotion of fatty acid oxidation [2]: failed to inhibit DNL

- E. C (μS/cm) [3, 6]: 56.06 μS/cm
SMILES: CC(=O)[O-].[K+] [KC2H3O2, K-acetate, reference compound]

SMILES: O=C([O-])C[C@@](O)(C(=O)[O-])[C@H](O)C(=O)[O-].[Ca+2].[K+] [KCaHCA]
- symptoms of osteoporosis (Osteoporosis): not effective
- subject's condition during the regimen (Osteoporosis): unable to move their leg

SMILES: O=C1CC(O)(C(O)C(=O)[O-])C(=O)[O][Mg][O]1.[K+] (stereo not drawn) [KMgHCA, Potassium Magnesium Bimetal HCA Compound]
- Treatment performance ([4]; Patient II (72 kg)): + −
- observed result following treatment ([4]; Subject II): could stand on their feet
- reduction of symptoms ([4]; Subject II): partial reduction of symptoms
- symptoms of osteoporosis (Osteoporosis): partial improvement
- subject's condition during the regimen (Osteoporosis): slight difficult to walk because feeling of burning sensation in their feet
- κ value contribution of Mg—O bond (half of the 2 bond contribution) ([3]; 0.3 mmol/l): 2.095 μS/cm
- E. C (μS/cm) [3, 6]: 60.25 μS/cm
- E. C (μS/cm) ([3]; 0.3 mmol/l, additive 10 mg gliserol): 60.23 μS/cm
- E. C (μS/cm) ([3]; 0.3 mmol/l, additive 10 mg glucose): 60.29 μS/cm
- 2 bond of Mg—O contribution to κ value ([3]; run 2 minus run 1 (60.25-56.06)): ~4.19 μS/cm

SMILES: O=C1CC(O)(C(O)C(=O)[O][Mg][O]C(=O)C(O)C2(O)CC(=O)[O][Mg][O]C2=O)C(=O)[O][Mg][O]1 (stereo not drawn) [Mg3(HCA)2•2H2O, reference compound]
- E. C (μS/cm) ([3]; 0.1 mmol/l in demineralized water (equimolar in Mg2+ to run 8)): 31.2 μS/cm

- E. C (μS/cm) [3, 6]: 32.3 μS/cm
SMILES: CC(=O)[O-].CC(=O)[O-].O.O.O.O.[Mg+2] [Mg(CH3COO)2•4H2O, reference compound]

SMILES: O=C(O)CO [glycolic acid]
- pKa [5]: approx 3.83

Reference: patent US11066423B2, “Monomeric bimetal hydroxycitric acid compounds and methods of making and using the same” (GLYKON TECHNOLOGIES GROUP, LLC, priority 2016, dated 2021)
